Laboratory results as given in patent US7470663B2, “Mixtures of insulin drug-oligomer conjugates comprising polyalkylene glycol, uses thereof, and methods of making same” (Biocon Limited, priority 2001, dated 2008).

System: normal fasted beagle dogs
Experiment: Activity and inter-subject variability: glucose lowering after oral liquid dosage formulation
Format: in vivo
Details: fasted beagles, 0.25 mg/kg oral liquid; compared with polydispersed PEG7AVG-hexyl-insulin, monoconjugate (FIG. 21)
Procedure: The inter-subject variability may be measured by various methods as will be understood by those skilled in the art. The inter-subject variability is preferably calculated as follows. The area under a dose response curve (AUC) (i.e., the area between the dose-response curve and a baseline value) is determined for each subject. The average AUC for all subjects is determined by summing the AUCs of each subject and dividing the sum by the number of subjects. The absolute value of the difference between the subject's AUC and the average AUC is then determined for each subject. The absolute values of the differences obtained are then summed to give a value that represents the inter-subject variability. Lower values represent lower inter-subject variabilities and higher values represent higher inter-subject variabilities.
An effective animal model for evaluating formulations uses normal fasted beagle dogs. These dogs are given 0.25 mg/kg of insulin conjugates to evaluate the efficacy of various formulations.
The protocol for dog experiments calls for a blood glucose measurement at time zero just before a drug is administered. The oral liquid dosage formulation is then squirted into the back of the dog's mouth. In each case, the dogs received 0.25 mg/kg of this solution. Blood is drawn at 15, 30, 60 and 120 minutes and glucose levels are measured and graphed. The lower the glucose levels, the better the activity of the insulin conjugate.

Substance	activity (glucose lowering)	inter-subject variability
PEG7-hexyl-insulin, monoconjugate: human insulin monoconjugated at the B29 position with the activated mPEG7-hexyl oligomer of Example 18; non-polydispersed mixture	higher activity	less inter-subject variability
PEG10-hexyl-insulin, monoconjugate: non-polydispersed mixture of mPEG10-hexyl-insulin, monoconjugates	higher activity	less inter-subject variability
